Laboratory results reported in patent US8815879B2, “Substituted 4-(selenophen-2(or-3)-ylamino)pyrimidine compounds and methods of use thereof” (Kasina Laila Innova Pharmaceuticals Private Limited, priority 2010, dated 2014).
pIC50: −log10 of the molar value. Structures can show the parent of a compound that is named as a salt.

Tests used:
[1] = tested on: human colorectal carcinoma HT29 cells; assay: MTT based cell proliferation assay, HT29; conditions: for inhibition at 10 µg/mL / pIC50: Homo sapiens, HT-29, 72 h; for inhibition at 10 µg/mL: read-out: Cell Proliferation Inhibition in HT29 (Colon carcinoma), % at highest screening dose; for pIC50: read-out: Cell Proliferation Inhibition in HT29 (Colon carcinoma), IC50
[2] = tested on: human prostate DU145 cells; assay: MTT based cell proliferation assay, DU145; conditions: for inhibition at 10 µg/mL / pIC50: Homo sapiens, DU-145, 72 h; for inhibition at 10 µg/mL: read-out: Cell Proliferation Inhibition in DU145 (Prostate carcinoma), % at highest screening dose; for pIC50: read-out: Cell Proliferation Inhibition in DU145 (Prostate carcinoma), IC50
[3] = tested on: human lung carcinoma A549 cells; assay: MTT based cell proliferation assay, A549; conditions: for inhibition at 10 µg/mL / pIC50: Homo sapiens, A549, 72 h; for inhibition at 10 µg/mL: read-out: Cell Proliferation Inhibition in A549 (Lung carcinoma), % at highest screening dose; for pIC50: read-out: Cell Proliferation Inhibition in A549 (Lung carcinoma), IC50
[4] = tested on: human cervical carcinoma HeLa cells; assay: cells; assay type: cell-based
Description: (§1) MTT [3-(4,5-dimethylthiazol-2-yl)-2,5-diphenyltetrazolium bromide] incorporation based cell proliferation assay was performed using standard procedure. […] The assay was carried out according to the instructions provided by the vendor. […] Vehicle control culture wells received only a maximum of 0.5% DMSO. Thereafter, 0.5 mg/ml of MTT reagent was added to each well and the microplate was incubated further for 4 h at 37° C. in presence of 5% CO2. Finally, the cells were solubilized by adding solubilizing solution and allowed to incubate at 37° C. overnight. After complete solubilization of the formazan crystals the absorbance was read at 540 nm in a microplate reader (BioRad, USA).
(§2) The evaluation of cell proliferation inhibitory activities of the compounds was done in two phases—(1) Screening, and (2) half-maximal inhibitory concentration (IC50) determination. In the screening phase, the cells were treated with three different concentrations e.g. 1, 5 and 10 μg/ml.

[5] = tested on: human breast carcinoma (estrogen receptor negative) MDA-MB-231 cells; assay: cells; assay type: cell-based
Description: as §1, §2

[6] = tested on: HepG2 (Hepatocellular Carcinoma); assay: cells; assay type: cell-based
Description: as §1, §2

Question: For CC(C)(C)c1cc(Nc2ncnc3oc(-c4ccccc4)cc23)c(C(N)=O)[se]1 [Compound 15, 3-(6-phenylfuro[2,3-d]pyrimidin-4-ylamino)-5-tert-butylselenophene-2-carboxamide], which inhibition at 10 µg/mL [1] is on record?
Answer: Its inhibition at 10 µg/mL is 25.4%.

Question: And the melting point?
Answer: Its melting point is 280 to 282 °C.

Question: What about the inhibition at 10 µg/mL [2] of the same compound?
Answer: The inhibition at 10 µg/mL was 3.44%.

Question: And the inhibition at 10 µg/mL [3]?
Answer: Its inhibition at 10 µg/mL is 5.87%.

Question: With COc1cc2nc(CN(C)C)nc(Nc3cc(C(C)(C)C)[se]c3C(N)=O)c2cc1OC (as salt: HCl) [Compound 27] as the compound, how does the melting point read?
Answer: Its melting point is 226 to 228 °C.

Question: With COc1cc2ncnc(N(C)c3cc(C(C)(C)C)[se]c3C(N)=O)c2cc1OC [Compound 21, 3-(N-(6,7-dimethoxyquinazolin-4-yl)-N-methylamino)-5-tert-butylseleno-phene-2-carboxamide] as the compound, how does the pIC50 [1] read?
Answer: The pIC50 was 5.41.

Question: What about the melting point of the same compound?
Answer: Its melting point is 256 to 258 °C.

Question: What about the pIC50 [2] of the same compound?
Answer: Its pIC50 is 5.40.

Question: What about the pIC50 [3] of the same compound?
Answer: The pIC50 was 5.44.

Question: What about the pIC50 ([4]; Homo sapiens, HeLa, MTT, read-out: Cell proliferation inhibition (IC50) in HeLa (Cervical Carcinoma)) of the same compound?
Answer: Its pIC50 is 5.53.

Question: What about the “potency compared to Iressa, HeLa” value ([4]; ratio of IC50 values) of the same compound?
Answer: Its value is “seventeen times”.

Question: What about the pIC50 ([5]; Homo sapiens, MDA-MB-231, MTT, read-out: Cell proliferation inhibition (IC50) in MDA-MB-231 (Breast Carcinoma)) of the same compound?
Answer: Its pIC50 is 5.54.

Question: And the “potency compared to Iressa, MDA-MB-231” value ([5]; ratio of IC50 values)?
Answer: Its value is “sixteen”.

Question: What about the pIC50 ([6]; Homo sapiens, HepG2, MTT, read-out: Cell proliferation inhibition (IC50) in HepG2 (Hepatocellular Carcinoma)) of the same compound?
Answer: The pIC50 was 5.63.

Question: And the “potency compared to Iressa, HepG2” value ([6]; ratio of IC50 values)?
Answer: The value was “fifteen”.

Question: With COC(=O)c1cc(Nc2nc(C)nc3cc(OC)c(OC)cc23)c(C)[se]1 (as salt: HCl) [Compound 25, methyl 4-(6,7-dimethoxy-2-methylquinazolin-4-ylamino)-5-methylselenophene-2-carboxylate] as the compound, how does the melting point read?
Answer: Its melting point is 276 to 280 °C.

Question: Which melting point does the source give for COc1cc2nc(C)nc(Nc3cc(C(C)(C)C)[se]c3C(N)=O)c2cc1OC (as salt: HCl) [Compound 24, 3-(6,7-dimethoxy-2-methylquinazolin-4-ylamino)-5-tert-butylselenophene-2-carboxamide] here?
Answer: The melting point was 282 to 284 °C.

Question: With COc1cc2ncnc(N(CCCl)c3cc(C(C)(C)C)[se]c3C(N)=O)c2cc1OCCCN1CCOCC1 (as salt: HCl) [Compound 23, 3-(N-(6-(3-morpholinopropoxy)-7-methoxyquinazolin-4-yl)-N-(2-chloroethyl)amino)-5-tert-butylselenophene-2-carboxamide] as the compound, how does the melting point read?
Answer: The melting point was 190 to 192 °C.

Question: For COCCOc1cc2ncnc(Nc3cc(C(C)(C)C)[se]c3C(N)=O)c2cc1OCCOC (as salt: HCl) [Compound 6, 3-(6,7-bis(2-methoxyethoxy)quinazolin-4-ylamino)-5-tert-butylselenophene-2-carboxamide], which melting point is on record?
Answer: Its melting point is 224 to 226 °C.

Question: Which inhibition at 10 µg/mL [1] does the source give for CSc1cc2ncnc(Nc3cc(C(C)(C)C)[se]c3C(N)=O)c2s1 [Compound 14, 3-(6-(methylthio)thiopheno[3,2-d]pyrimidin-4-ylamino)-5-tert-butyl-selenophene-2-carboxamide] here?
Answer: Its inhibition at 10 µg/mL is 53.5%.

Question: What about the melting point of the same compound?
Answer: Its melting point is 260 to 262 °C.

Question: And the inhibition at 10 µg/mL [2]?
Answer: Its inhibition at 10 µg/mL is 7.81%.

Question: And the inhibition at 10 µg/mL [3]?
Answer: Its inhibition at 10 µg/mL is 3.54%.

Question: Which melting point does the source give for CC(C)(C)c1cc(Nc2ncnc3ccc(NC(=O)CCl)cc23)c(C(N)=O)[se]1 (as salt: HCl) [Compound 9, 3-(6-(2-chloroacetamido)quinazolin-4-ylamino)-5-tert-butylselenophene-2-carboxamide] here?
Answer: Its melting point is 276 to 278 °C.

Question: With CC(C)(C)c1cc2c(Nc3cc(C(C)(C)C)[se]c3C(N)=O)ncnc2o1 [Compound 16, 3-(6-tert-butylfuro[2,3-d]pyrimidin-4-ylamino)-5-tert-butylselenophene-2-carboxamide] as the compound, how does the inhibition at 10 µg/mL [1] read?
Answer: Its inhibition at 10 µg/mL is 20.3%.

Question: And the melting point?
Answer: The melting point was 288 to 290 °C.

Question: And the inhibition at 10 µg/mL [2]?
Answer: Its inhibition at 10 µg/mL is 2.81%.

Question: What about the inhibition at 10 µg/mL [3] of the same compound?
Answer: The inhibition at 10 µg/mL was 1.6%.

Question: With CC(C)(C)c1cc(Nc2ncnc3cc(C(C)(C)C)[se]c23)c(C(N)=O)[se]1 (as salt: HCl) [Compound 18, 3-(6-tert-butylselenopheno[3,2-d]pyrimidin-4-ylamino)-5-tert-butylselenophene-2-carboxamide] as the compound, how does the melting point read?
Answer: The melting point was 212 to 214 °C.

Question: Which melting point does the source give for COC(=O)c1cc(Nc2ncnc3cc(OC)c(OCCCN4CCOCC4)cc23)c(C)[se]1 (as salt: HCl) [Compound 10, methyl 4-(6-(3-morpholinopropoxy)-7-methoxyquinazolin-4-ylamino)-5-methylselenophene-2-carboxylate] here?
Answer: Its melting point is 198 to 200 °C.

Question: For COC(=O)c1cc(Nc2ncnc3[nH]c(C)c(C)c23)c(C)[se]1 [Compound 17, methyl 4-(5,6-dimethyl-7H-pyrrolo[2,3-d]pyrimidin-4-ylamino)-5-methylselenophene-2-carboxylate], which inhibition at 10 µg/mL [1] is on record?
Answer: The inhibition at 10 µg/mL was 4.54%.

Question: And the melting point?
Answer: Its melting point is 238 to 240 °C.

Question: And the inhibition at 10 µg/mL [2]?
Answer: Its inhibition at 10 µg/mL is 7.62%.

Question: What about the inhibition at 10 µg/mL [3] of the same compound?
Answer: The inhibition at 10 µg/mL was 2.66%.

Question: With COc1cc2ncnc(Nc3cc(C(C)(C)C)[se]c3[N+](=O)[O-])c2cc1OCCCN1CCOCC1 (as salt: HCl) [Compound 4, [5-(tert-butyl)-2-nitroselenophen-3-yl][7-methoxy-6-(3-morpholino-propoxy)quinazolin-4-yl]amine] as the compound, how does the melting point read?
Answer: Its melting point is 240 to 242 °C.

Question: For COc1cc2ncnc(Nc3cc(C(N)=O)[se]c3C)c2cc1OCCCN1CCOCC1 (as salt: HCl) [Compound 11, 4-(6-(3-morpholinopropoxy)-7-methoxyquinazolin-4-ylamino)-5-methylselenophene-2-carboxamide], which melting point is on record?
Answer: Its melting point is 252 to 254 °C.

Question: Which melting point does the source give for COc1cc2c(Nc3cc(C(C)(C)C)[se]c3C(N)=O)ncnc2cc1OCCCN1CCOCC1 (as salt: HCl) [Compound 5, 3-(7-(3-morpholinopropoxy)-6-methoxyquinazolin-4-ylamino)-5-tert-butylselenophene-2-carboxamide] here?
Answer: Its melting point is 262 to 264 °C.

Question: For COc1cc2nc(-c3ccc(Cl)cc3)nc(Nc3cc(C(C)(C)C)[se]c3C(N)=O)c2cc1OC [Compound 28, 3-(2-(4-chlorophenyl)-6,7-dimethoxyquinazolin-4-ylamino)-5-tert-butylselenophene-2-carboxamide], which inhibition at 10 µg/mL [1] is on record?
Answer: The inhibition at 10 µg/mL was 2.69%.

Question: What about the melting point of the same compound?
Answer: Its melting point is 268 to 270 °C.

Question: What about the inhibition at 10 µg/mL [2] of the same compound?
Answer: The inhibition at 10 µg/mL was 10.4%.

Question: What about the inhibition at 10 µg/mL [3] of the same compound?
Answer: Its inhibition at 10 µg/mL is 9%.

Question: For CCc1c(C)[se]c2ncnc(Nc3cc(C(C)(C)C)[se]c3C(N)=O)c12 (as salt: HCl) [Compound 19, 3-(5-ethyl-6-methylselenopheno[2,3-d]pyrimidin-4-ylamino)-5-tert-butylselenophene-2-carboxamide], which melting point is on record?
Answer: The melting point was 278 to 280 °C.

Question: Which melting point does the source give for COc1cc2ncnc(N(C)c3cc(C(C)(C)C)[se]c3C(N)=O)c2cc1OCCCN1CCOCC1 (as salt: HCl) [Compound 22, 3-(N-(6-(3-morpholinopropoxy)-7-methoxyquinazolin-4-yl)-N-methylamino)-5-tert-butylselenophene-2-carboxamide] here?
Answer: The melting point was 254 to 256 °C.

Question: What does the source list for COc1cc2ncnc(Nc3cc(C(C)(C)C)[se]c3C(N)=O)c2cc1OC [Compound 1, 3-(6,7-dimethoxyquinazolin-4-ylamino)-5-tert-butylselenophene-2-carboxamide]?
Answer: pIC50 [1]: 5.29; potency in vitro compared to gefitinib (Iressa), HT29 ([1]; ratio of IC50 values): several times better potency; melting point: 234 to 238 °C; pIC50 [2]: 5.44; potency in vitro compared to gefitinib (Iressa), DU145 ([2]; ratio of IC50 values): several times better potency; pIC50 [3]: 5.04; potency in vitro compared to gefitinib (Iressa), A549 ([3]; ratio of IC50 values): approximately two times

Question: Which melting point does the source give for CC(C)(C)c1cc(Nc2ncnc3ncccc23)c(C(N)=O)[se]1 (as salt: HCl) [Compound 12, 5-tert-butyl-3-(pyridino[2,3-d]pyrimidin-4-ylamino)selenophene-2-carboxamide] here?
Answer: Its melting point is 242 to 244 °C.

Question: Which results are given for COc1cc2ncnc(Oc3cc(C(C)(C)C)[se]c3C(N)=O)c2cc1OC [Compound 29, 3-(6,7-dimethoxyquinazolin-4-yloxy)-5-tert-butylselenophene-2-carboxamide]?
Answer: inhibition at 10 µg/mL [1]: 44.6%; melting point: 220 to 224 °C; inhibition at 10 µg/mL [2]: 43%; inhibition at 10 µg/mL [3]: 15.6%

Question: Which melting point does the source give for COc1cc2ncnc(Nc3cc(C(C)(C)C)[se]c3C(N)=O)c2cc1OCCCN1CCOCC1 (as salt: HCl) [Compound 3, 3-(6-(3-morpholinopropoxy)-7-methoxyquinazolin-4-ylamino)-5-tert-butylselenophene-2-carboxamide] here?
Answer: Its melting point is 262 to 264 °C.

Question: For CCc1c(C)sc2ncnc(Nc3cc(C(C)(C)C)[se]c3C(N)=O)c12 (as salt: HCl) [Compound 13, 3-(5-ethyl-6-methylthiopheno[2,3-d]pyrimidin-4-ylamino)-5-tert-butylselenophene-2-carboxamide], which melting point is on record?
Answer: The melting point was 258 to 260 °C.
